Experimental findings from patent US5354862A, “Preparation and the use of halopropargylated cyclic quaternary ammonium compounds as antimicrobial agents” (Rohm and Haas Company, priority 1993, dated 1994) are described below.

Where two headings read alike, the source gives them in different places.

Common to all, as to test: Broth two-fold serial dilution MIC test
One assay has as its system Staphylococcus aureus. The class given is cell-based, Staphylococcus aureus (ATCC 6538). The conditions noted are these: Saur. Summed up:
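Broth two-fold serial dilution from 500 ppm down to 0.25 ppm, compound delivered from acetone/methanol/water stock, inoculated with standardized cell suspension and incubated at an organism-appropriate temperature. MIC is the lowest concentration giving complete growth inhibition.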

The test system of a further assay is Aspergillus niger. The class given is cell-based, Aspergillus niger (ATCC 6275). Conditions: Anig, TSB media. An outline of the steps: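 Two-fold broth serial dilution from 500 ppm down to 0.25 ppm, compound stock in acetone/methanol/water 5:3:2. Vessels inoculated with standardized spore suspension harvested from agar slants, incubated at a species-appropriate temperature, then scored for growth/no growth. MIC is the lowest concentration giving complete growth inhibition.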

Another assay concerns Escherichia coli. Format: cell-based, Escherichia coli (ATCC 11229). Conditions: Ecol. An outline of the steps: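 Broth two-fold serial dilutions ran from 500 down to 0.25 ppm, prepared from a stock in acetone/methanol/water (5:3:2). Each tube received a standardized bacterial suspension and was incubated at a temperature suited to the species. MIC is the lowest concentration giving complete growth inhibition.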

Another assay relates to Pseudomonas aeruginosa. Format: cell-based, Pseudomonas aeruginosa (ATCC 15442). The conditions noted are these: Psae. Summed up: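 Broth two-fold serial dilution MIC (500 to 0.25 ppm) was run against Pseudomonas aeruginosa, with compound from 1% stock in acetone/methanol/water 5:3:2. Vessels inoculated with standardized broth-grown cells were incubated, then scored for growth. MIC is the lowest concentration giving complete growth inhibition.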

The mark [1] stands for this setting: Staphylococcus aureus, Table 2, M9G media, read-out: MIC.
Setting [2] is: Staphylococcus aureus, Table 2, TSB media, read-out: MIC.
Where [3] appears, read: Aspergillus niger, Table 2, read-out: MIC.
Setting [4] is: Escherichia coli, Table 2, M9G media, read-out: MIC.
The mark [5] stands for this setting: Escherichia coli, Table 2, TSB media, read-out: MIC.
Where [6] appears, read: Pseudomonas aeruginosa, Table 2, M9G media, read-out: MIC.
Setting [7] is: Pseudomonas aeruginosa, Table 2, TSB media, read-out: MIC.

Take `CCCCCCCCCCOC(=O)CC[N+]1(CC#CI)CCCC1` [Compound 97, 1-[2-(decyloxycarbonyl)]ethyl-1-(3-iodopropargyl)-pyrrolidinium 4-methylbenzenesulfonate]: the MIC in the assay on Staphylococcus aureus (setting [1]) came to 8 µg/mL; in the assay on Staphylococcus aureus (setting [2]) it was 16 µg/mL; with Aspergillus niger (setting [3]), 16 µg/mL; in the assay with Escherichia coli (setting [4]), 16 µg/mL; with Escherichia coli (setting [5]), 32 µg/mL; with Pseudomonas aeruginosa (setting [6]), 250 µg/mL. The MIC in the assay on Pseudomonas aeruginosa (setting [7]) came out at 500 µg/mL.

Turning to `CCCCCCCCCCCCCCCC[N+]1(CC#CI)CC(C)OC(C)C1` (stereo not drawn) [Compound 48, 4-hexadecyl-4-(3-iodopropargyl)-2,6-dimethylmorpholinium methanesulfonate], the MIC was under 0.25 ppm with Staphylococcus aureus (Table 2, M9G media); 0.5 ppm with Staphylococcus aureus (Table 2, TSB media); 1 ppm against Aspergillus niger (Table 2); 2 ppm against Escherichia coli (Table 2, M9G media); 8 ppm with Pseudomonas aeruginosa (Table 2, M9G media); 8 ppm with Pseudomonas aeruginosa (Table 2, TSB media).

Turning to `CCCC[N+]1(CC#CI)CCCC1` [Compound 9, 1-butyl-1-(3-iodopropargyl)-pyrrolidinium 4-methylbenzenesulfonate], the MIC in the assay on Staphylococcus aureus (setting [1]) came out at 250 µg/mL; with Staphylococcus aureus (setting [2]), 250 µg/mL; in the assay on Aspergillus niger (setting [3]), 500 µg/mL; against Escherichia coli (Table 2, M9G media), 500 ppm; against Escherichia coli (Table 2, TSB media) it was 250 ppm; in the assay with Pseudomonas aeruginosa (setting [6]), 500 µg/mL. In addition, in the assay on Pseudomonas aeruginosa (setting [7]), the MIC is over 500 µg/mL.

Consider `CCCCCCCCCCCCCC[N+]1(CC#CI)CCOCC1` [Compound 72, 4-tetradecyl-4-(3-iodopropargyl)-rnorpholinium iodide], for which the MIC came out at 0.25 ppm against Staphylococcus aureus (Table 2, M9G media); 0.25 ppm against Staphylococcus aureus (Table 2, TSB media); 4 ppm in the assay with Aspergillus niger (Table 2); 0.5 ppm in the assay with Escherichia coli (Table 2, M9G media); 4 ppm against Escherichia coli (Table 2, TSB media); 16 ppm in the assay on Pseudomonas aeruginosa (Table 2, M9G media). This molecule also registered an MIC against Pseudomonas aeruginosa (Table 2, TSB media) of 64 ppm.

For `CCCCCCCCCCCCCCCC[N+]1(CC#CI)CCOCC1` [Compound 49, 4-hexadecyl-4-(3-iodopropargyl)-morpholinium 4-methylbenzenesulfonate], the MIC in the assay on Staphylococcus aureus (Table 2, M9G media) is recorded as under 0.25 ppm; against Staphylococcus aureus (Table 2, TSB media), 0.5 ppm; in the assay on Aspergillus niger (Table 2), 1 ppm; in the assay on Escherichia coli (Table 2, M9G media) it was 1 ppm; against Escherichia coli (Table 2, TSB media) it was 2 ppm; in the assay on Pseudomonas aeruginosa (Table 2, M9G media), 8 ppm. The same molecule displayed an MIC in the assay with Pseudomonas aeruginosa (Table 2, TSB media) of 8 ppm.

With `CCCCCCCCCC[N+]1(CC#CI)CCCC1` [Compound 78, 1-decyl-1-(3-iodopropargyl)-pyrrolidinium bromide], the MIC was determined as 0.25 ppm against Staphylococcus aureus (Table 2, M9G media); 2 ppm in the assay on Staphylococcus aureus (Table 2, TSB media); 8 ppm against Aspergillus niger (Table 2); 2 ppm against Escherichia coli (Table 2, M9G media); 4 ppm against Escherichia coli (Table 2, TSB media); 250 ppm against Pseudomonas aeruginosa (Table 2, M9G media). Further, the MIC against Pseudomonas aeruginosa (Table 2, TSB media) amounted to 500 ppm.

Take `CCCCCCCCCCOC(=O)C[N+]1(CC#CI)CCCC1` [Compound 65, 1-(decyioxycarbonyl)methyl-1-(3-iodopropargyl)-pyrrolidinium 4methylbenzenesulfonate]: the MIC in the assay with Staphylococcus aureus (setting [1]) was determined as 2 µg/mL; with Staphylococcus aureus (setting [2]), 1 µg/mL; with Aspergillus niger (setting [3]), 16 µg/mL; with Escherichia coli (setting [4]) it was 2 µg/mL; in the assay on Escherichia coli (setting [5]), 4 µg/mL; in the assay with Pseudomonas aeruginosa (setting [6]), 64 µg/mL. In addition, the MIC with Pseudomonas aeruginosa (setting [7]) came to 125 µg/mL.

`CCCCCCCCCCCCCCCC[N+]1(CC#CI)CC(C)OC(C)C1` (stereo not drawn) [Compound 47, 4-hexadecyl-4-(3-iodopropargyl)-2,6-dimethylmorpholinium benzenesulfonate]: the MIC in the assay with Staphylococcus aureus (Table 2, M9G media) was under 0.25 ppm; against Staphylococcus aureus (Table 2, TSB media) it was under 0.25 ppm; against Aspergillus niger (Table 2) it was 0.5 ppm; in the assay on Escherichia coli (Table 2, M9G media), 2 ppm; against Escherichia coli (Table 2, TSB media), 2 ppm; against Pseudomonas aeruginosa (Table 2, M9G media), 8 ppm. The MIC against Pseudomonas aeruginosa (Table 2, TSB media) was 8 ppm.

Turning to `OCCCCCCCCCCC[N+]1(CC#CI)CCCCC1` [Compound 19, 1-(11-hydroxyundecyl)-1-(3-iodopropargyl)-piperidinium 4-methylbenzenesulfonate], the MIC amounted to 2 µg/mL in the assay on Staphylococcus aureus (setting [1]); 16 µg/mL with Staphylococcus aureus (setting [2]); 32 µg/mL with Aspergillus niger (setting [3]); 32 µg/mL with Escherichia coli (setting [5]); 250 µg/mL with Pseudomonas aeruginosa (setting [6]); 250 µg/mL in the assay on Pseudomonas aeruginosa (setting [7]).

On to `C[N+]1(CC#CI)CCCCC1` [Compound 17, 1-Methyl-1-(3-Iodopropargyl)-Piperidinium 4-Methylbenzenesulfonate], for which the MIC in the assay on Staphylococcus aureus (setting [1]) turned out to be 32 µg/mL; with Staphylococcus aureus (setting [2]), 32 µg/mL; in the assay with Staphylococcus aureus (Staphylococcus aureus, Table 3 comparison, M9G media, read-out: MIC) it was 32 µg/mL; in the assay on Staphylococcus aureus (Staphylococcus aureus, Table 3 comparison, TSB media, read-out: MIC), 32 µg/mL; with Aspergillus niger (setting [3]), 125 µg/mL; with Aspergillus niger (Aspergillus niger, Table 3 comparison, read-out: MIC), 125 µg/mL. For the same molecule, the MIC in the assay on Escherichia coli (setting [5]) is 250 µg/mL; in the assay with Escherichia coli (Escherichia coli, Table 3 comparison, TSB media, read-out: MIC), 250 µg/mL; in the assay on Pseudomonas aeruginosa (setting [6]), 250 µg/mL; in the assay with Pseudomonas aeruginosa (setting [7]), 125 µg/mL; in the assay on Pseudomonas aeruginosa (Pseudomonas aeruginosa, Table 3 comparison, M9G media, read-out: MIC) it was 250 µg/mL; with Pseudomonas aeruginosa (Pseudomonas aeruginosa, Table 3 comparison, TSB media, read-out: MIC) it was 125 µg/mL.

For the molecule `CCCCCCCCCCCCCCCC[N+]1(CC#CI)CCOCC1` [Compound 50, 4-hexadecyl-4-(3-iodopropargyl)-morpholinium benzenesulfonate], the MIC in the assay on Staphylococcus aureus (Table 2, M9G media) is recorded as under 0.25 ppm; against Staphylococcus aureus (Table 2, TSB media) it was 0.5 ppm; with Aspergillus niger (Table 2), 0.5 ppm; against Escherichia coli (Table 2, M9G media) it was 1 ppm; in the assay with Escherichia coli (Table 2, TSB media), 1 ppm; with Pseudomonas aeruginosa (Table 2, M9G media), 8 ppm. Besides, the MIC against Pseudomonas aeruginosa (Table 2, TSB media) is 8 ppm.

With `CCCCCCCCCCCCCCCC[N+]1(CC#CI)CCCCC1` [Compound 60, 1-hexadecyl-1-(3-iodopropargyl)-piperidinium benzenesulfonate], the MIC with Staphylococcus aureus (Table 2, M9G media) stood at 1 ppm; in the assay with Staphylococcus aureus (Table 2, TSB media), 2 ppm; against Aspergillus niger (Table 2), 16 ppm; in the assay on Escherichia coli (Table 2, M9G media), 2 ppm; against Escherichia coli (Table 2, TSB media) it was 16 ppm; with Pseudomonas aeruginosa (Table 2, M9G media), 63 ppm. This molecule yielded an MIC with Pseudomonas aeruginosa (Table 2, TSB media) of 250 ppm.

Regarding `CCCCCCCCCCCCOC(=O)C[N+]1(CC#CI)CCCC1` [Compound 64, 1-(dodecyloxycarbonyl)methyl-1-(3-iodopropargyl)-pyrrolidinium benzenesulfonate], the MIC against Staphylococcus aureus (Table 2, M9G media) is 0.25 ppm; with Staphylococcus aureus (Table 2, TSB media), 0.25 ppm; in the assay with Aspergillus niger (Table 2), 8 ppm; against Escherichia coli (Table 2, M9G media), 1 ppm; in the assay on Escherichia coli (Table 2, TSB media), 4 ppm; with Pseudomonas aeruginosa (Table 2, M9G media), 32 ppm. The MIC against Pseudomonas aeruginosa (Table 2, TSB media) came to 32 ppm.

With `CCCCCCCCCCCCCC[N+]1(CC#CI)CC=CCC1` (stereo not drawn) [Compound 53, 1-(tetradecyl)-1-(3-iodopropargyl)-1,2,3,6-tetrahydropyridinium benzenesulfonate], the MIC in the assay on Staphylococcus aureus (setting [1]) was under 0.25 µg/mL; in the assay on Staphylococcus aureus (setting [2]), under 0.25 µg/mL; with Aspergillus niger (setting [3]), under 0.25 µg/mL; with Escherichia coli (setting [4]), 2 µg/mL; in the assay with Escherichia coli (setting [5]), 1 µg/mL; in the assay on Pseudomonas aeruginosa (setting [6]) it was 8 µg/mL. In the assay with Pseudomonas aeruginosa (setting [7]), the MIC worked out at 16 µg/mL.

Take `CCCCCCCCCCOC(=O)C[N+]1(CC#CI)CCOCC1` [Compound 67, 4-(decyloxycarbonyl)methyl-4-(3-iodopropargyl)-morpholinium benzenesulfonate]: the MIC in the assay with Staphylococcus aureus (Table 2, M9G media) came out at 0.5 ppm; against Staphylococcus aureus (Table 2, TSB media) it was 8 ppm; against Aspergillus niger (Table 2), 125 ppm; in the assay on Escherichia coli (Table 2, M9G media) it was 2 ppm; in the assay with Escherichia coli (Table 2, TSB media), 8 ppm; against Pseudomonas aeruginosa (Table 2, M9G media), 125 ppm. The MIC in the assay on Pseudomonas aeruginosa (Table 2, TSB media) is 250 ppm.
